{"source": "patent US12233129B2", "about": "“Methods and compositions for the treatment of cancer” (priority 2019, dated 2025)", "type_in_all_cases": "cell-based, human", "key": {"[1]": {"system": "SW-48 (WT-p53) colon cancer cells", "test": "Cell viability / clonogenic survival with and without mot-2 inhibitor MKT-077", "set-up": "dose or concentration left out as unconfirmed", "experimental": "We decided to confirm whether VTD-induced tumor suppression is indeed mediated via the UBXN2A-mot-2-p53 axis (FIG. 18H). After initial verification with WB (FIG. 18A), HCT-116 (p53+/+ and p53 −/−) and LoVo were treated with VTD for 24, 48, and 72 hours (FIG. 18B-D). […] We defined this phenomenon as a delayed cytotoxic response, since it occurs through UBXN2A transcription, as previously described for other anti-cancer agents. […] In the second set of experiments, we treated two stable UBXN2A silenced clones of HCT-116 along with controls with VTD. […] Staurosporine-treated cells were used as a positive control (S4F). […] Finally, to understand the contribution of mot-2 to the anti-cancer mechanism of VTD, we used a mot-2 inhibitor known as MKT-077 [7] along with VTD in well-differentiated SW-48 (WT-p53) colon cancer cells for 72 hours. Due to the critical role of mot-2 in the mitochondria, we could not use a silencing strategy for mot-2 in this set of experiments.\nFIG. 18: Veratridine (VTD) functions via the UBXN2A-mot-2-p53 axis. (A) WB confirmed the presence and the absence of p53 protein in HCT-116 p53^(+/+) and HCT-116 p53^(−/−) cancer cell lines, respectively. […] (F) In another set of experiments, UBXN2A-silenced cells were treated with VTD (100, 200, and 300 μM) for 24 hours. Cells were then labelled with Sytox Red followed by flow cytometry analysis. […] (G) SW48 well-differentiated colon cancer cells with WT-p53 were treated with MKT-077 (5 mg/ml), an mot-2 inhibitor, along with VTD for 72 hours. […] (H) This flowchart recapped the sequence of proteins which activate and function upon VTD exposure to decrease cell viability. The data is shown as mean±SEM of three independent experiments (n=3) in triplicate where *p<0.05 using Benferroni's modified student's t-test."}, "HCT-116": {"system": "HCT-116", "conditions": "10 days", "experimental": "(§1) Because colon cancer cells develop resistance to chemotherapy after an initial response, we decided to investigate whether VTD can potentiate the cytotoxic effect of 5-FU when cells receiving long-term therapy mimicking the in vivo therapy. Cells were treated with VTD for 10 days.\n(§2) Based on the significant effect of long-term exposure in LoVo and U2OS, we hypothesized that VTD could be a potential complementary strategy alongside 5-FU, an effective drug with a high rate of resistant events in colon tumors. To answer this question, we first determined the minimum concentration of 5-FU that has no effect or a very mild effect on cell viability after 10 days' exposure in three cell lines HCT-116, LoVo, and U2OS (data not shown). We performed the 10 days' treatment using a combination of a low dose of VTD (50 μM or 100 μM) plus a suboptimal dose of 5-FU (1 μM or 5 μM).\n(§3) FIG. 20: Sensitization of colon cancer cells to a long-term suboptimal dose of 5-fluorouracil exposure when combined with VTD. (A-D) (A) HCT-116, (B) LoVo, (C) SW-480, and (D) U2OS were treated with VTD (10-300 μM) for 10 days. […] (E-G) (E) HCT-116, (F) LoVo, and (G) U-2OS were treated with suboptimal doses of 5-FU and VTD (50 and 100 μM) for 10 days. […] (H-I) A series of flow cytometry assays using an antibody against the CD44 cancer stem cell marker illustrated that VTD can target CD44+ colon cancer stem cells and eventually eliminate them in a dose-dependent manner, implicating VTD as a potential cancer stem cell-targeting therapy. (J) Tumor tissue lysates from 48 patients with colon cancer along the matched adjacent normal colon tissue lysates were probed with anti-UBXN2A and anti-Actin antibodies, followed by quantitation and normalization of signals. […] (I) The proposed mechanism action of VTD. VTD increases the expression of UBXN2A, which releases the p53 from mot-2's sequestration and, together with standard chemotherapy, can cause an effective tumor suppression."}, "LoVo": {"system": "LoVo", "conditions": "10 days", "experimental": "as §1, §2, §3"}, "U2OS": {"system": "U2OS", "conditions": "10 days", "experimental": "as §1, §2, §3"}, "SW480": {"system": "SW480", "test": "Long-term (10 days) exposure colony formation / cell viability", "conditions": "VTD 10-300 μM, mutant p53", "experimental": "as §1, §3"}, "Rictor": {"system": "Rictor", "test": "Flow cytometry with anti-Rictor antibody in SW480 cells", "conditions": "VTD 5 days (semi-chronic treatment), N=3", "experimental": "In panels A-E, SW480 cells were treated with VTD for 5 days (a semi-chronic treatment) and the cells were collected and subjected to flow-cytometry analysis using anti-Rictor antibody."}, "[2]": {"conditions": "VTD 50 or 100 μM plus 5-FU 1 or 5 μM"}}, "note": "Entries after “also recorded” stand apart in the source; their conditions may differ."}
{"smiles": "COc1ccc(C(=O)O[C@H]2CC[C@@]3(C)[C@@H]4CC[C@H]5[C@]6(O)C[C@H](O)[C@@]7(O)[C@@H](CN8C[C@@H](C)CC[C@H]8[C@@]7(C)O)[C@]6(O)C[C@@]53O[C@]24O)cc1OC", "note": "[VTD, Veratridine]", "values": [{"measurement": "cell viability / colony number", "setting": "[1]; VTD alone, 72 hours", "result": "significantly decreased cell viability in a dose-dependent manner; also recorded: signifcantly decreases the colony number"}, {"measurement": "cell viability / colony number", "setting": "[1]; VTD with mot-2 inhibitor MKT-077, 72 hours", "result": "no significant effect on cell viability"}, {"measurement": "cell viability, long-term exposure", "setting": "HCT-116; VTD 10-300 μM", "result": "only responded to a high concentration of VTD"}, {"measurement": "cytotoxic effect of suboptimal 5-FU in presence of VTD", "setting": "HCT-116; [2]", "result": "significantly potentiated the cytotoxic effect of the suboptimal dose of 5-FU"}, {"measurement": "cell viability, long-term exposure", "setting": "LoVo; VTD 10-300 μM", "result": "significant decrease in cell viability in a dose-dependent manner"}, {"measurement": "cytotoxic effect of suboptimal 5-FU in presence of VTD", "setting": "LoVo; [2]", "result": "significantly potentiated the cytotoxic effect of the suboptimal dose of 5-FU"}, {"measurement": "cell viability, long-term exposure", "setting": "U2OS; VTD 10-300 μM", "result": "significant decrease in cell viability in a dose-dependent manner"}, {"measurement": "cytotoxic effect of suboptimal 5-FU in presence of VTD", "setting": "U2OS; [2]", "result": "significantly potentiated the cytotoxic effect of the suboptimal dose of 5-FU"}, {"measurement": "cell viability, long-term exposure", "setting": "SW480", "result": "no response"}, {"measurement": "level of Rictor proteins", "setting": "Rictor", "result": "significantly decreases Rictor proteins"}]}
